Paper PMC5059921, “Chalepin: isolated from Ruta angustifolia L. Pers induces mitochondrial mediated apoptosis in lung carcinoma cells” (BMC Complementary and Alternative Medicine, 2016)

Assays:
[1] = system: hepatitis C virus, hepatoma cell line (Huh7.5); parameters: method as in PMID 25454460; details: cited from earlier work
[2] = system: A549 cells; assay: Western blot analysis of apoptotic proteins; assay type: cell-based, human
[3] = system: A549 cells; assay: Intracellular ROS measurement (DCFH-DA); assay type: cell-based, human; details: A549, 45 μg/ml, 6 h incubation
Experimental: The assay was conducted as described by Ling et al. with some minor modifications. The ROS measurement was done using the fluorescent probe 2’,7’-dichlorofluorescein diacetate (DCFH-DA) that enabled the monitoring of intracellular accumulation of ROS. The A549 cells were seeded into a 96 well plate with a density of 2×10^4 cells per well and allowed to attach overnight. Treatment with chalepin at various concentrations were done the next day and incubated for different time periods. At the end of the incubation period, the media was removed and 5 μM of DCFH-DA which is diluted in media was added to the cells and incubated for 40 min at 37 °C. The cells were then washed three times with clear media and the fluorescence intensity (excitation = 485 nm and emission = 530 nm) was measured using a microplate reader. The morphology of the cells were observed using a fluorescence microscope.

[4] = system: A549 cells; assay: Mitochondrial membrane potential assay (JC-1, flow cytometry); assay type: cell-based; details: Homo sapiens, A549, 48 h, read-out: JC-1 dot plot: Viable
Experimental: A lipophilic and cell-permeable fluorochrome JC-1 (5,5’,6,6’-tetrachloro-1,1’,3,3’-tetraethyl benzimidazolyl carbocyanine iodide), was used to measure mitochondrial membrane potential (Δψm) according to the manufacturer’s instructions (BD MitoScreen Kit). The cells (1×10^6) were seeded in tissue culture plates and were treated with 18, 27, 36, and 45 μg/ml of chalepin for 48 h incubation. The cells were then harvested, washed with PBS twice and incubated with JC-1 dye for 15 mins at 37°C. At the end of the incubation, the cells were washed and resuspended with 500 μl of 1x assay buffer (provided in the kit). The intracellular fluorescence signals of JC-1 in the cells were then measured with Accuri C6 flow cytometer. Approximately 10,000 events were recorded per analysis. In healthy cells, JC-1 accumulates as aggregates in the mitochondria and emits red fluorescence. In cells, which have undergone apoptosis, JC-1 remains in monomeric form in the cytoplasm and emits green fluorescence. The red and green fluorescence were detected at FL-2 and FL-1 channels respectively in the flow cytometer. Ratio of mean fluorescence intensity between the FL1 and FL2 channels were calculated and this is used to determine the changes in the mitochondrial membrane potential. The results were analysed by calculating the ratio of JC-1 dimers to JC-1 monomers. A […] ratio indicated a […] membrane depolarization of mitochondria in cells (BD MitoScreen Flow Cytometry Mitochondrial Membrane Potential Detection Kit Instruction Manual). Cells that was untreated in 0.5 % DMSO acted as the control.
JC-1 (5,5’,6,6’-tetrachloro-1,1’,3,3’-tetraethyl benzimidazolyl carbocyanine iodide) mitochondrial membrane potential assay kit by Abcam was used to stain the A549 cells to view the mitochondrial membrane potential (Δψm) changes in cells. Prior to the JC-1 staining initiation, 1x dilution buffer were prepared by adding 10 mL 10× dilution buffer to 90 mL deionized water. The solution was mixed gently and throughly. JC-1 stock (1mM) was diluted to 20 μM working JC-1 solution. This was done by adding 200 μl of JC-1 stock solution into 10 mL of 1× dilution buffer. The cells (1×10^6) were seeded in tissue culture plates and were treated with 18, 27, 36, and 45 μg/ml of chalepin for 48 and 72 h incubation. The cells were then harvested, washed with PBS twice and incubated with JC-1 dye for 20 mins at 37 °C. At the end of the incubation, the cells were washed and resuspended with 1000 μl of 1× dilution buffer. The cells were viewed using a fluorescence microscope at an excitation wavelength of Ex475 ± 20nm and emission wavelength of Em530 ± 15 nm and 590 ± 17.5 nm. The images were captured and recorded.

[5] = system: A549 cells; assay: DNA fragmentation by APO-BrdU TUNEL assay; assay type: cell-based, human
Experimental: DNA strand breaks in apoptotic cells caused by the activation of endonucleases, were detected by APO-BrdU TUNEL assay kit. After incubation with various concentrations of chalepin at 48 and 72 h, cells were harvested and washed with PBS. Next, the cells were fixed with 1 % (w/v) paraformaldehyde for 15 mins, then washed with PBS, and fixed with 70 % (v/v) ethanol overnight. Ethanol was removed by centrifugation and DNA labeling steps were performed according to the manual provided in the kit. Samples were analyzed by flow cytometer and a minimum of 10,000 events were acquired for each replicate.

[6] = system: caspase 3 in A549 cells; assay: Caspase-3 activity (CaspILLUME, flow cytometry); assay type: cell-based, human; details: for active caspase 3, V1-R (apoptotic population): 45 ug/ml; for fold increase of caspase 3 activity vs untreated control: 45 μg/ml
Experimental: (§1) Caspase activity assays were performed according to the instructions in the manual (CaspILLUME, Genetex). Cells were seeded at a density of 1×10^6 cells per culture dish. After being subjected to treatment for 48 and 72 h, the cells were detached with accutase, washed, and resuspended in PBS. Next, 300 μL of each sample was aliquoted into centrifuge tubes, after which 1 μL of fluorescent substrate (FITC-DEVD-FMK for caspase 3 and FITC-LEHD-FMK for caspase 9 activity) was added to each tube and incubated for 1 h at 37°C incubator. At the end of the incubation period, the cells were centrifuged at 3000 rpm for 5 min and the supernatant was removed. After that, the cells were resuspended in 0.5 mL wash buffer (provided in the kit) and centrifuged at 3000 rpm for 5 min. This step was repeated before performing the analysis with flow cytometer (Accuri C6) and a minimum of 10,000 events were acquired for each replicate.

[7] = system: caspase 9 in A549 cells; assay: Caspase-9 activity (CaspILLUME, flow cytometry); assay type: cell-based, human; details: 45 μg/ml
Experimental: as §1

[8] = A549, 36 μg/ml, 2,4,8,12 and 24 h

SMILES: C=CC(C)(C)c1cc2cc3c(cc2oc1=O)O[C@H](C(C)(C)O)C3 [Chalepin, chalepin]
- replication of hepatitis C virus [1]: stop the replication
- Procaspase 3 [2, 8]: downregulation
- Procaspase 9 [2, 8]: downregulation
- anti-apoptotic gene products Bcl-2, survivin, XIAP, Bcl-xl and cFLIP [2, 8]: downregulate
- cleaved caspase 3 [2, 8]: upregulation
- expression of Bax [2, 8]: upregulation
- expression of cytochrome c [2, 8]: upregulation
- expression of p53 [2, 8]: upregulation
- quantity of PARP expressed [2, 8]: decreased with time
- Bak ([2]; A549, 36 μg/ml, time dependently): upregulated
- ROS fold increase vs untreated control [3]: 62.24 fold
- viability at 18 µg/mL [4]: 78.3%
- viability at 27 µg/mL [4]: 68.2%
- viability at 36 µg/mL [4]: 54.2%
- viability at 45 µg/mL [4]: 52.9%
- DNA fragmentation, R3 (TUNEL positive cells) ([5]; A549, 48 h, 45 μg/ml): 38.5 ± 0.70%
- DNA fragmentation, R3 (TUNEL positive cells) ([5]; A549, 72 h, 36 μg/ml): 73.50 ± 0.20%
- DNA fragmentation, R3 (TUNEL positive cells) ([5]; A549, 72 h, 45 μg/ml): 66.50 ± 0.29%
- active caspase 3, V1-R (apoptotic population) ([6]; A549, 48 h): 26.40 ± 0.79%
- fold increase of caspase 3 activity vs untreated control ([6]; A549, 48 h): 9.32 fold
- active caspase 3, V1-R (apoptotic population) ([6]; A549, 72 h): 49.07 ± 0.63%
- fold increase of caspase 3 activity vs untreated control ([6]; A549, 72 h): 8.71 fold
- active caspase 9, V1-R (apoptotic population) ([7]; A549, 48 h): 22.57 ± 0.21%
- active caspase 9, V1-R (apoptotic population) ([7]; A549, 72 h): 33.5 ± 0.35%
- fold increase in activation of caspase 9 vs untreated control ([7]; A549, 72 h): 8.44 fold
